This is an account of results in patent US20240317683A1, “METHODS OF TREATING MOOD DISORDERS” (priority 2020, published 2024).

pEC50, pIC50: −log10 of the molar value. Where a name gives a salt, the structure may show the parent alone.

The nature of data set [1]: Pharmacokinetics in rats, brain. In kind it is in vivo, Sprague Dawley rats. The note with it: rat brain, SC; for Cmax / Tmax / half-life: male, Sprague Dawley. How it is done: Animals. Male Sprague Dawley rats, aged 8-12 weeks, were used in these studies. Four rats were housed in each cage. Temperature and humidity were maintained at 22±3° C. and 30-70%, respectively, and illumination was controlled to give a 12 h light and 12 h dark cycle. Temperature and humidity were recorded by an auto-controlled data logger system. All animals were provided laboratory rodent diet and were fasted for 4 h pre-dose and 2 h post-dose. Reverse osmosis water treated with ultraviolet light was provided ad libitum. Animals were randomly assigned to treatment groups.
Drugs. Compounds 4 and 5 were prepared as described above. Compound 6 was commercially obtained. Test compounds were used as the hydrogen fumarate (6) or hydrochloride (4 and 5) salts and were dissolved in a vehicle consisting of normal saline. They were then administered subcutaneously (SC) at a dose of 1 or 10 mg/kg (calculated based on the free base) and at a volume of 5 mL/kg body weight.
Sample Collection and Bioanalysis. Blood samples (approximately 120 μL) were collected under light isoflurane anesthesia (Surgivet®) from the retro orbital plexus at 0.08, 0.25, 0.5, 1, 2, 4, 8, and 24 h (4 animals per time point). Immediately after blood collection, plasma was harvested by centrifugation at 4,000 rpm for 10 min at 4° C. and samples were stored at −70±10° C. until bioanalysis. Following blood collection, animals were immediately sacrificed, the abdominal vena-cava was cut open, and the whole body was perfused from the heart using 10 mL of normal saline, and brain samples were collected from all animals. After isolation, brain samples were rinsed three times in ice-cold normal saline (for 5-10 seconds/rinse using ˜5-10 mL normal saline in disposable petri dish for each rinse) and dried on blotting paper. Brain samples were homogenized using ice-cold phosphate-buffered saline (pH 7.4). Total homogenate volume was three times the tissue weight. All homogenates were stored at −70±10° C. until bioanalysis. For bioanalysis, 25 μL aliquots of plasma/brain study samples or spiked plasma/brain calibration standards were added to individual pre-labeled micro-centrifuge tubes followed by 100 μL of an internal standard solution (glipizide, 500 ng/ml in acetonitrile) except for blanks, where 100 μL of acetonitrile was added. Samples were vortexed for 5 minutes and then centrifuged for 10 minutes at 4,000 rpm at 4° C. Following centrifugation, 100 μL of each clear supernatant was transferred to a 96 well plate and analyzed with a fit-for-purpose LC-MS/MS method, with authentic samples of each analyte used for calibration and identification.
Data Analysis. Pharmacokinetic parameters were estimated using the non-compartmental analysis tool of Phoenix® WinNonlin software (Ver 8.0).

Another data set deals with CYP1A2 (Homo sapiens (Human), UniProt P05177). The experiment in a line: CYP inhibition in human liver microsomes, CYP1A2. In kind it is in vitro ADME. The following applies: for inhibition at 10 min, 10 µM: both sexes, human, pooled human liver microsomes, pH 7.4, probe phenacetin (10 μM), HLM, phenacetin substrate, read-out: CYP 1A2 % Inhibition at 10 μM. How it is done: HLM Incubations. Pooled HLM from adult male and female donors (Corning 452117) were used. Microsomal incubations were carried out in multi-well plates. Liver microsomal incubation aliquots contained 1) PBS (100 mM, pH 7.4), MgCl2 (3.3 mM), and NADPH (1 mM); 2) liver microsomal protein (0.2 mg/mL); 3) the reference CYP substrates: phenacetin for CYP1A2 (10 μM), diclofenac for CYP2C9 (5 μM), (S)-mephenytoin for CYP2C19 (30 μM), dextromethorphan for CYP2D6 (5 μM), and midazolam for CYP3A4 (2 μM); and 4) test compounds (10 μM), control inhibitors (3 μM α-naphthoflavone for CYP1A2, 3 μM sulfaphenazole for CYP2C9, 1 μM (+)-N-3-benzylnirvanol for 2C19, 3 μM quinidine for CYP2D6, or 3 μM ketoconazole for CYP3A4), or solvent (for uninhibited condition). Incubations were carried out at 37° C. with constant shaking for 10 minutes.
Sample Analysis. […] Percent inhibition by test compounds or control inhibitors was calculated by comparing the metabolite formation in the presence of the inhibitor compared to the metabolite formation in the absence of the inhibitor.
For orientation: Liver microsomes are a subcellular fraction often used to study metabolism.

The next data set concerns rat synaptosomes. Put plainly: Synaptosome 5-HT release assay. The class given is biochemical, Sprague-Dawley rats. The following applies: for pEC50: [3H]5-HT. How it is done:
Synaptosome 5-HT Release Assay. Synaptosome release assays were conducted according to modifications of previously described procedures (Partilla et al. (2016). Interrogating the Activity of Ligands at Monoamine Transporters in Rat Brain Synaptosomes. In Neurotransmitter Transporters (pp. 41-52). Springer.). Briefly, synaptosomes were prepared from rat brains. Male Sprague-Dawley rats were rendered unconscious with CO2 and their brains were immediately removed. The cerebella were discarded and the whole brains (minus striatum) were placed in ice-cold 0.32 M sucrose (10 mL per brain) and gently homogenized by hand. The homogenate of each brain was centrifuged at 1,000× g at 4° C. for 10 mins and the resulting supernatant was diluted with ice-cold 0.32 M sucrose to a total volume of 10 mL to provide the synaptosome solution. Synaptosomes were then preloaded with 5 nM [^3H] 5-HT in the presence of selective uptake inhibitors of DAT (50 nM GBR12935), NET (100 nM nomifensine), and VMAT2 (1 μM reserpine) in Krebs phosphate buffer (KPB). The incubations were allowed to reach equilibrium for 2 h at 25° C. For the release reactions, 425 μL of preloaded synaptosomes were added to test tubes containing 75 μL of test drugs diluted in KPB containing 1 mg/mL BSA. After 10 mins, the release reaction was stopped using a cell harvester by rapid vacuum filtration over GF/B filter paper presoaked in wash buffer (10 mM Tris-HCl, pH 7.4, 150 mM NaCl) and the filters were washed with additional wash buffer. Filters were dried for 1 h at 60° C. and retained radioactivity was quantified using a MicroBeta 2 liquid scintillation counter. The amount of retained radioactivity was inversely proportional to the extent of release.

Sequence of CYP1A2 (P05177 whole entry, looked up): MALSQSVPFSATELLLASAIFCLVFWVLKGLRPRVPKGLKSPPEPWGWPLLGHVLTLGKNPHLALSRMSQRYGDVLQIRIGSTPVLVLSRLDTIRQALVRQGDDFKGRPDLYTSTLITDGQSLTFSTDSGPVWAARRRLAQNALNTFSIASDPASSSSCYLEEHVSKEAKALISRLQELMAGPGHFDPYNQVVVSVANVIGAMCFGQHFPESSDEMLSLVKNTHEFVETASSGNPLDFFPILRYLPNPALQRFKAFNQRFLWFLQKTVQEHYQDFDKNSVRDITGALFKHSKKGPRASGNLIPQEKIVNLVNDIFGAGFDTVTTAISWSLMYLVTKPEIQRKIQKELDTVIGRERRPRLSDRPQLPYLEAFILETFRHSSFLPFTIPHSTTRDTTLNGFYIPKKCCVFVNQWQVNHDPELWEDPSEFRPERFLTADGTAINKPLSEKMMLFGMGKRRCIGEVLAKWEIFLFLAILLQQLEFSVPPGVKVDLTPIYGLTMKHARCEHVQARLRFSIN

For the compound `CCN(C)CCc1c[nH]c2cccc(O)c12` [Compound 6], in data set [1] (10 mg/kg), the peak concentration (Cmax) – broadly, the highest concentration seen after dosing – is 6160 ng/g; the Tmax (as a rule, the time from dosing to the highest level) was determined as 120 min; the half-life (commonly the time needed for the level to fall by half in the phase considered) was 125 min; the AUC0-last is given as 30,638.13 h*ng/g. In addition, at CYP1A2, the pIC50 – broadly, the negative decadic logarithm of the IC50, by convention in mol/L – was under 4.30.

Take `CCCN(CC)CCc1c[nH]c2ccccc12` [Compound 1, ethylpropyltryptamine]: the inhibition (as a rule, the share of the control response that was lost under treatment) at 10 min, 10 µM at CYP1A2 was 37.1%.

For `CN(C)CCc1c[nH]c2ccc(F)cc12` [Compound 5, 2-(5-fluoro-1H-indol-3-yl)-N,N-dimethylethan-1-amine hydrochloride], in data set [1] (10 mg/kg), the Cmax is 275 ng/g, the Tmax amounted to 15 min, the half-life was 23.4 min and the AUC0-last came out at 93.99 ng·h/g.

Take `CCCN(CC)CCc1c[nH]c2ccc(F)cc12` [Compound 3, N-ethyl-N-(2-(5-fluoro-1H-indol-3-yl)ethyl) propan-1-amine hydrochloride]: the pIC50 at CYP1A2 was 5.08.

For `CN(C)CCc1c[nH]c2ccccc12` [DMT, N,N-dimethyltryptamine, reference compound], in the data set with rat synaptosomes, the “% Release @ Max Dose (10 μM)” value is reported as 80.77% and the pEC50 (in general, −log10 of the EC50, conventionally taken in molar units) was 7.09.

With `CCN(C)CCc1c[nH]c2ccccc12` [Compound 2, methylethyltryptamine], in the data set with rat synaptosomes, the “% Release @ Max Dose (10 μM)” value is 71% and the pEC50 was 6.74. Further, on CYP1A2, the negative-log IC50 (pIC50) was under 4.30 and the inhibition at 10 min, 10 µM came to 0.5%.

On to `CCN(C)CCc1c[nH]c2ccc(F)cc12` [Compound 4, N-ethyl-2-(5-fluoro-1H-indol-3-yl)-N-methylethan-1-amine hydrochloride], for which, in the data set with rat synaptosomes, the “% Release @ Max Dose (10 μM)” value came out at 71.36% and the negative-log EC50 (pEC50) was 8.07. Further, in data set [1] (1 mg/kg), the Cmax turned out to be 188 ng/g, the Tmax is 15 min, the half-life was 23.4 min and the AUC0-last is 197.70 ng·h/g. In data set [1] (10 mg/kg), the Cmax worked out at 2480 ng/g, the time of peak concentration (Tmax) stood at 60 min, the half-life is 31.2 min and the AUC0-last is on record as 4,710.96 h*ng/g. The compound also gave a negative logarithm of the IC50 (pIC50) against CYP1A2 of under 4.30.
